# Strand notation (5' to 3'): a small letter for the sugar, then the base; units joined by * are phosphorothioate-linked, units joined directly phosphodiester-linked; [ ] holds rarer units or linkages, { } end groups; capitals alone tell only the bases. e = 2'-O-(2-methoxyethyl) (MOE); [5mC] = 5-methylcytosine; d = 2'-deoxy (DNA)
# Test system: human PKK mRNA
# Test: Antisense inhibition of human PKK mRNA in HepaRG cells, 5,000 nM (Example 2)
# Format: cell-based
# Outline: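 Percent inhibition of PKK mRNA is relative to untreated control, with qRT-PCR (probe set RTS3454) values adjusted to total RNA by RIBOGREEN. Oligonucleotides, fully phosphorothioate 2′-MOE gapmers, were delivered at 5,000 nM by electroporation into 20,000 HepaRG cells/well for about 24 h.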
# [1] = Table 9 experiment, HepaRG cells, 20,000 cells per well, electroporation with 5,000 nM antisense oligonucleotide, approx. 24 hours, PKK mRNA by RT-PCR (RTS3454), relative to untreated control cells
# [2] = Table 10 experiment, HepaRG cells, 20,000 cells per well, electroporation with 5,000 nM antisense oligonucleotide, approx. 24 hours, PKK mRNA by RT-PCR (RTS3454), relative to untreated control cells
# [3] = HepaRG cells, electroporation with 5,000 nM antisense oligonucleotide, approximately 24 hours, PKK mRNA by RT-PCR (RTS3454), relative to untreated control cells, Table 6 experiment
# [4] = Table 7, HepaRG cells, electroporation with 5,000 nM antisense oligonucleotide, approx. 24 hours, PKK mRNA by RT-PCR (RTS3454), relative to untreated control cells
# [5] = Table 8, HepaRG cells, electroporation with 5,000 nM antisense oligonucleotide, approx. 24 hours, PKK mRNA by RT-PCR (RTS3454), relative to untreated control cells
# [6] = HepaRG cells, electroporation with 5,000 nM antisense oligonucleotide, approximately 24 hours, PKK mRNA by RT-PCR (RTS3454), relative to untreated control cells, Table 5 experiment
# [7] = HepaRG cells, 5,000 nM antisense oligonucleotide, human PKK mRNA, Table 18
substance,measurement,setting,value
547475 (antisense eT*eT*eT*eG*eT*dT*dA*d[5mC]*d[5mC]*dA*dA*dA*dG*dG*dA*eA*eT*eA*eT*eT) [compound 547475],% inhibition,[1],44%
same,% inhibition,[2],42%
547336 (antisense eT*eT*eT*eA*eT*dA*dA*dA*dT*dG*dT*d[5mC]*dT*d[5mC]*dG*eA*eT*eG*eG*e[5mC]) [compound 547336],% inhibition,[3],81%
546218 (antisense eT*eG*eG*eT*e[5mC]*d[5mC]*dG*dA*d[5mC]*dA*d[5mC]*dA*d[5mC]*dA*dA*eA*eA*eG*e[5mC]*eA) [compound 546218],% inhibition,[4],71%
547370 (e[5mC]*eA*eA*eA*eA*dG*d[5mC]*dA*dT*d[5mC]*dT*dG*dG*dA*dG*eT*eG*eA*eG*eA; antisense) [compound 547370],% inhibition,[4],73%
547447 (antisense eA*eT*eT*eT*eG*dT*dG*dA*dG*dA*dA*dA*dG*dG*dT*eG*eT*eA*eT*e[5mC]) [compound 547447],% inhibition,[5],80%
546346 (antisense eA*eG*eG*eG*eA*d[5mC]*d[5mC]*dA*d[5mC]*d[5mC]*dT*dG*dA*dA*dT*e[5mC]*eT*e[5mC]*e[5mC]*e[5mC]) [compound 546346],% inhibition,[1],83%
same,% inhibition,[2],70%
546171 (antisense e[5mC]*eT*eA*eT*e[5mC]*dT*dT*dT*d[5mC]*dA*dA*dG*dA*dA*dG*e[5mC]*eA*eA*e[5mC]*e[5mC]) [compound 546171],% inhibition,[6],81%
547282 (antisense eT*eT*eG*e[5mC]*eT*dT*dG*d[5mC]*dT*dT*dG*dA*dA*dT*dA*eA*eA*eA*eT*e[5mC]) [compound 547282],% inhibition,[6],53%
546193 (antisense e[5mC]*eA*eT*eT*eA*dA*dA*dA*dT*dT*dG*dA*d[5mC]*dT*d[5mC]*e[5mC]*eT*e[5mC]*eT*e[5mC]) [compound 546193],% inhibition,[3],57%
546152 (eG*eT*eA*e[5mC]*eA*dT*dG*dG*dA*dA*dG*d[5mC]*dT*dA*d[5mC]*eA*eT*e[5mC]*e[5mC]*e[5mC]; antisense) [compound 546152],% inhibition,[6],73%
546942 (eT*eA*e[5mC]*eA*e[5mC]*dT*dG*dA*dA*d[5mC]*d[5mC]*d[5mC]*d[5mC]*d[5mC]*dT*eT*eA*eG*eG*e[5mC]; antisense) [compound 546942],% inhibition,"HepaRG cells, 5,000 nM antisense oligonucleotide, 5-10-5 gapmers, Table 16",56%
546290 (antisense e[5mC]*e[5mC]*e[5mC]*e[5mC]*eA*dA*dG*dA*dA*dG*dA*dG*dT*dT*dT*eG*eT*eT*e[5mC]*e[5mC]) [compound 546290],% inhibition,[5],86%
547656 (e[5mC]*eA*eA*eT*eA*dT*d[5mC]*dA*d[5mC]*dT*dG*dT*d[5mC]*d[5mC]*dT*eA*eT*eA*eA*e[5mC]; antisense) [compound 547656],% inhibition,"human PKK mRNA, HepaRG cells, 5-10-5 motif oligonucleotides targeting SEQ ID NO: 1 and 10",42%
547425 (eT*eA*eA*e[5mC]*e[5mC]*dA*dG*dA*dG*d[5mC]*dT*d[5mC]*d[5mC]*d[5mC]*dT*eT*eG*eT*eG*eT; antisense) [compound 547425],% inhibition,[5],85%
548714 (DNA eT*e[5mC]*eA*d[5mC]*dT*dG*dT*dA*d[5mC]*dT*dA*dG*dT*eT*eT*e[5mC]; antisense) [compound 548714],% inhibition,[7],15%
546379 (antisense e[5mC]*eT*e[5mC]*e[5mC]*eA*dT*dG*d[5mC]*dT*dT*dT*dG*d[5mC]*dA*dG*eA*eT*eG*eA*eG) [compound 546379],% inhibition,"HepaRG cells, electroporation, 5,000 nM antisense oligonucleotide, approx. 24 hours, primer probe set RTS3454, relative to untreated control cells, Table 11",69%
548709 (DNA eG*eT*eA*d[5mC]*dT*dA*dG*dT*dT*dT*d[5mC]*d[5mC]*dT*eA*eT*eA; antisense) [compound 548709],% inhibition,[7],0%
547424 (eA*eG*eA*eG*e[5mC]*dT*d[5mC]*d[5mC]*d[5mC]*dT*dT*dG*dT*dG*dT*e[5mC]*e[5mC]*e[5mC]*eA*eT; antisense) [compound 547424],% inhibition,[5],90%
546495 (eT*eG*e[5mC]*eA*eT*dA*d[5mC]*dT*d[5mC]*dG*d[5mC]*d[5mC]*dT*dT*dT*eG*eT*eG*eA*e[5mC]; antisense) [compound 546495],% inhibition,"HepaRG cells, electroporation, 5,000 nM antisense oligonucleotide, approx. 24 hours, primer probe set RTS3454, relative to untreated control cells, Table 12",65%
